Source: patent publication US12030904B2 (priority 2020, dated 2024)
Read-outs that look alike come from different tables or passages of the source.

How the values were obtained:
MT4 cytotoxicity (CC50) = settings: human, MT4 cells
SARS-CoV-2 = assay: microbe, parasite or virus in culture; type: cell-based; settings: Severe acute respiratory syndrome coronavirus 2, read-out: SARS EC50
[1] = system: Recombinant Respiratory Syncytial virus strain A2 containing the firefly luciferase reporter (RSV-Fluc); assay: microbe, parasite or virus in culture; type: cell-based; settings: human respiratory syncytial virus, NHBE
[2] = 72 h, read-out: RSV-Fluc EC50 (NHBE), NHBE cells, three days, Table 2

Structure (SMILES)	CC50 (MT4 cytotoxicity (CC50); MT4 CC50, Table 4)	EC50 (SARS-CoV-2)	EC50 ([1]; read-out: RSV EC50, Table 4)	CC50 (MT4 cytotoxicity (CC50); MT4 CC50, Table 2a)	EC50 ([1]; read-out: RSV EC50, Table 2a)	EC50 [1, 2]
CCCCCCCCCCCCCCCCCCOC[C@H](COP(=O)(O)OC[C@H]1O[C@@](C#N)(c2ccc3c(N)ncnn23)[C@H](O)[C@@H]1O)Oc1ccc(C#N)nn1 [Example 80, ((2R,3S,4R,5R)-5-(4-aminopyrrolo[2,1-f][1,2,4]triazin-7-yl)-5-cyano-3,4-dihydroxytetrahydrofuran-2-yl)methyl ((R)-2-((6-cyanopyridazin-3-yl)oxy)-3-(octadecyloxy)propyl) hydrogen phosphate]	344 nM	54 nM	13 nM	–	–	–
CCCCCCCCCCCCCCCCCCOC[C@H](COP(=O)(O)OC[C@H]1O[C@@](C#N)(c2ccc3c(N)ncnn23)[C@H](O)[C@@H]1O)Oc1cc(F)cc(C#N)c1 [Example 31, ((2R,3S,4R,5R)-5-(4-aminopyrrolo[2,1-f][1,2,4]triazin-7-yl)-5-cyano-3,4-dihydroxytetrahydrofuran-2-yl)methyl ((R)-2-(3-cyano-5-fluorophenoxy)-3-(octadecyloxy)propyl) hydrogen phosphate]	–	86 nM	–	195 nM	21 nM	–
CCCCCCCCCCCCCCCOC[C@H](COP(=O)(O)OC[C@H]1O[C@@](C#N)(c2ccc3c(N)ncnn23)[C@H](O)[C@@H]1O)OCc1ccc(C#N)cc1F [Example 102, [(2R,3S,4R,5R)-5-(4-aminopyrrolo[2,1-f][1,2,4]triazin-7-yl)-5-cyano-3,4-dihydroxy-tetrahydrofuran-2-yl]methyl [(2R)-2-[(4-cyano-2-fluoro-phenyl)methoxy]-3-pentadecoxy-propyl] hydrogen phosphate]	4500 nM	120 nM	21 nM	–	–	–
CCCCCCCC/C=C/CCCCCCCCOC[C@H](COP(=O)(O)OC[C@H]1O[C@@](C#N)(c2ccc3c(N)ncnn23)[C@H](O)[C@@H]1O)OCc1ccc(C#N)cc1F [Example 127, ((2R,3S,4R,5R)-5-(4-aminopyrrolo[2,1-f][1,2,4]triazin-7-yl)-5-cyano-3,4-dihydroxytetrahydrofuran-2-yl)methyl ((R)-2-((4-cyano-2-fluorobenzyl)oxy)-3-(((E)-octadec-9-en-1-yl)oxy)propyl) hydrogen phosphate]	3910 nM	140 nM	28 nM	–	–	–
CCCCCCCCCCCCCCCCCCOC[C@H](COP(=O)(O)OC[C@H]1O[C@@](C#N)(c2ccc3c(N)ncnn23)[C@H](O)[C@@H]1O)OCc1cc(C#N)cc(OC)c1 [Example 106, [(2R,3S,4R,5R)-5-(4-Aminopyrrolo[2,1-f][1,2,4]triazin-7-yl)-5-cyano-3,4-dihydroxy-tetrahydrofuran-2-yl]methyl [(2R)-2-[(3-cyano-5-methoxy-phenyl)methoxy]-3-octadecoxy-propyl] hydrogen phosphate]	871 nM	10000 nM	88 nM	–	–	–
CCCCCCCCCCCCCCCCCCOC[C@H](COP(=O)(O)OC[C@H]1O[C@@](C#N)(c2ccc3c(N)ncnn23)[C@H](O)[C@@H]1O)OC(C)c1ccccc1 (single isomer, unassigned) [Example 27]	–	2000 nM	–	614 nM	113 nM	110 nM
CCCCCCCCCCCCCCCCOC[C@H](COP(=O)(O)OC[C@H]1O[C@@](C#N)(c2ccc3c(N)ncnn23)[C@H](O)[C@@H]1O)OCc1ccc(OC)cc1 [Example 97, ((2R,3S,4R,5R)-5-(4-aminopyrrolo[2,1-f][1,2,4]triazin-7-yl)-5-cyano-3,4-dihydroxytetrahydrofuran-2-yl)methyl ((R)-3-(hexadecyloxy)-2-((4-methoxybenzyl)oxy)propyl) hydrogen phosphate]	652 nM	99 nM	40 nM	–	–	–
CCCCCCCCCCCCCCCCCCOC[C@H](COP(=O)(O)OC[C@H]1O[C@@](C#N)(c2ccc3c(N)ncnn23)[C@H](O)[C@@H]1O)OCc1ccc(C#N)cc1OC [Example 114, [(2R,3S,4R,5R)-5-(4-Aminopyrrolo[2,1-f][1,2,4]triazin-7-yl)-5-cyano-3,4-dihydroxy-tetrahydrofuran-2-yl]methyl [(2R)-2-[(4-cyano-2-methoxy-phenyl)methoxy]-3-octadecoxy-propyl] hydrogen phosphate]	1880 nM	480 nM	93 nM	–	–	–
CCCCCCCCCCCCCCCCCOCC[C@H](COP(=O)(O)OC[C@H]1O[C@@](C#N)(c2ccc3c(N)ncnn23)[C@H](O)[C@@H]1O)OCc1ccc(C#N)cc1 [Example 111, [(2R,3S,4R,5R)-5-(4-Aminopyrrolo[2,1-f][1,2,4]triazin-7-yl)-5-cyano-3,4-dihydroxy-tetrahydrofuran-2-yl]methyl [(2R)-2-[(4-cyanophenyl)methoxy]-4-heptadecoxy-butyl] hydrogen phosphate]	18900 nM	3500 nM	499 nM	–	–	–
CCCCCCCCCCCCCCCCCCOC[C@H](COP(=O)(O)OC[C@H]1O[C@@](C#N)(c2ccc3c(N)ncnn23)[C@H](O)[C@@H]1O)OCc1ccc(OC)c(Cl)c1 [Example 49, ((2R,3S,4R,5R)-5-(4-aminopyrrolo[2,1-f][1,2,4]triazin-7-yl)-5-cyano-3,4-dihydroxytetrahydrofuran-2-yl)methyl ((R)-2-((3-chloro-4-methoxybenzyl)oxy)-3-(octadecyloxy)propyl) hydrogen phosphate]	–	3350 nM	–	951 nM	232 nM	230 nM
CCCCCCCCCCCCCCCCCCOC[C@H](COP(=O)(O)OC[C@H]1O[C@@](C#N)(c2ccc3c(N)ncnn23)[C@H](O)[C@@H]1O)OCc1cccc(C#N)n1 [Example 107, [(2R,3S,4R,5R)-5-(4-Aminopyrrolo[2,1-f][1,2,4]triazin-7-yl)-5-cyano-3,4-dihydroxy-tetrahydrofuran-2-yl]methyl [(2R)-2-[(6-cyano-2-pyridyl)methoxy]-3-octadecoxy-propyl] hydrogen phosphate]	885 nM	370 nM	80 nM	–	–	–
CCCCCCCCCCCCCCCCCCOC[C@H](COP(=O)(O)OC[C@H]1O[C@@](C#N)(c2ccc3c(N)ncnn23)[C@H](O)[C@@H]1O)OCc1ccc(Cl)cc1Cl [Example 62, ((2R,3S,4R,5R)-5-(4-aminopyrrolo[2,1-f][1,2,4]triazin-7-yl)-5-cyano-3,4-dihydroxytetrahydrofuran-2-yl)methyl ((R)-2-((2,4-dichlorobenzyl)oxy)-3-(octadecyloxy)propyl) hydrogen phosphate]	–	8620 nM	–	12600 nM	217 nM	220 nM
CCCCCCCCCCCCCCCCCCOC[C@H](COP(=O)(O)OC[C@H]1O[C@@](C#N)(c2ccc3c(N)ncnn23)[C@H](O)[C@@H]1O)OCc1ccc(Cl)c(Cl)c1 [Example 48, ((2R,3S,4R,5R)-5-(4-aminopyrrolo[2,1-f][1,2,4]triazin-7-yl)-5-cyano-3,4-dihydroxytetrahydrofuran-2-yl)methyl ((R)-2-((3,4-dichlorobenzyl)oxy)-3-(octadecyloxy)propyl) hydrogen phosphate]	–	10000 nM	–	1610 nM	78 nM	78 nM
CCCCCCCCCCCCCCOCCCCOP(=O)(O)OC[C@H]1O[C@@](C#N)(c2ccc3c(N)ncnn23)[C@H](O)[C@@H]1O [Example 120, [(2R,3S,4R,5R)-5-(4-Aminopyrrolo[2,1-f][1,2,4]triazin-7-yl)-5-cyano-3,4-dihydroxy-tetrahydrofuran-2-yl]methyl 4-tetradecoxybutyl hydrogen phosphate]	12100 nM	10000 nM	224 nM	–	–	–
CCCCCCCCCCCCCCCCOC[C@H](COP(=O)(O)OC[C@H]1O[C@@](C#N)(c2ccc3c(N)ncnn23)[C@H](O)[C@@H]1O)OCc1cc(F)cc(C#N)c1 [Example 119, [(2R,3S,4R,5R)-5-(4-Aminopyrrolo[2,1-f][1,2,4]triazin-7-yl)-5-cyano-3,4-dihydroxy-tetrahydrofuran-2-yl]methyl [(2R)-2-[(3-cyano-5-fluoro-phenyl)methoxy]-3-hexadecoxy-propyl] hydrogen phosphate]	404 nM	–	30 nM	–	–	–
CCCCCCCCCCCCCCCCCCCCOC[C@H](COP(=O)(O)OC[C@H]1O[C@@](C#N)(c2ccc3c(N)ncnn23)[C@H](O)[C@@H]1O)OCc1cc(F)cc(C#N)c1 [Example 125, ((2R,3S,4R,5R)-5-(4-aminopyrrolo[2,1-f][1,2,4]triazin-7-yl)-5-cyano-3,4-dihydroxytetrahydrofuran-2-yl)methyl ((R)-2-((3-cyano-5-fluorobenzyl)oxy)-3-(icosyloxy)propyl) hydrogen phosphate]	2080 nM	–	129 nM	–	–	–
CCCCCCCCCCCCCCCCCCOC[C@H](COP(=O)(O)OC[C@H]1O[C@@](C#N)(c2ccc3c(N)ncnn23)[C@H](O)[C@@H]1O)OCc1cc(F)ccc1C#N [Example 51, ((2R,3S,4R,5R)-5-(4-aminopyrrolo[2,1-f][1,2,4]triazin-7-yl)-5-cyano-3,4-dihydroxytetrahydrofuran-2-yl)methyl ((R)-2-((2-cyano-5-fluorobenzyl)oxy)-3-(octadecyloxy)propyl) hydrogen phosphate]	–	1650 nM	–	2140 nM	–	–
CCCCCCCCCCCCCCCCCCOC[C@H](COP(=O)(O)OC[C@H]1O[C@@](C#N)(c2ccc3c(N)ncnn23)[C@H](O)[C@@H]1O)Oc1cncc(C#N)c1 [Example 84, ((2R,3S,4R,5R)-5-(4-aminopyrrolo[2,1-f][1,2,4]triazin-7-yl)-5-cyano-3,4-dihydroxytetrahydrofuran-2-yl)methyl ((R)-2-((5-cyanopyridin-3-yl)oxy)-3-(octadecyloxy)propyl) hydrogen phosphate]	212 nM	–	7 nM	–	–	–
